Patent US12083084B2, “Method for enhancing energy production and metabolism in cells” (REPLICON HEALTH OY, priority 2013, dated 2024)
“Also recorded” adds a separate entry of the source.

Tests used:
[1] = rats, given with ethanol; cited from earlier work
[2] = tested on: primary human hepatocytes; assay: Cellular ROS detection (DCFDA) in primary human hepatocytes; assay type: cell-based; details: for ROS compared to 0 dose/control (in words): moderate metabolic stress (1.5-2 h after change of medium); for ROS production compared to 0 dose/control: donor four, High Medium, FIG. 5
Experimental: Primary human hepatocytes were purchased from Celsis In Vitro Technologies (1450 South Rolling Road Baltimore, MD 21227, USA). […] According to the information provided by the Celsis, hepatocytes from each donor should have at least 70% viability and more than 5 million viable cells. The medium for the culture of hepatocytes was provided by Celsis. They were InVitroGRO CP (for plating) medium (Z99029) and InVitroGRO HI (for incubation) medium (Z99009). Antibiotics (Torpedo Antibiotics Mix, Z990007) were also from Celsis. The thaw, plating and culture of cells were carried out according to the instruction provided by the Celsis In Vitro Technologies.
For the measurement of cell viability after treatment of test compound, CytoTox-One Homogeneous Membrane Integrity Assay kit (Promega, G7891) was used. The CytoTox-One Assay is a rapid fluorescent measure of the release of lactate dehydrogenase (LDH) from cells with a damaged membrane. The number of […] cells correlates to the fluorescence intensity determined by a fluorescence plate reader (Hidex Chameleon V multiplate reader, Hidex Oy, Turku, Finland) with excitation 544 nm and emission 590 nm. For the measurement of cellular reactive oxygen species (ROS), DCFDA Cellular ROS Detection Assay Kit from Abcam (ab113851) was used. Reactive oxygen species (ROS) assay kit (ab113851) uses the cell permeant reagent 2′,7′-dichlorofluorescein diacetate (DCFDA), a fluorogenic dye that measures hydroxyl, peroxyl and other ROS activity with the cell. The activity of ROS was measured by a fluorescence plate reader (Hidex) with excitation/emission wavelengths of 485 nm/535 nm.
The culture of primary hepatocytes was carried out based on the instructions provided by Celsis. After thawing, the cells were suspended in InVitroGRO CP medium. Thereafter the viability of cells was determined using the Trypan Blue exclusion method. Then the concentration of cells was adjusted using InVitroGRO CP medium, so about 30000-35000 cells/100 μl/well can be seeded in collagen I coated 96 well plate (BD, 734-0248).
After seeding, the cells were cultured overnight in the cell culture incubator (Sanyo MCO 18) at atmosphere of 95% air, 5% CO2 at 37° C. Thereafter, the culture medium for the cells was changed to InVitroGRO Hi (Hi Medium) containing test compound (D-glyceric acid calcium salt dehydrate) at the concentrations of 0, 0.2, 2 and 20 μg/ml (study 1, Table 1.1.1) and 0, 0.4, 2 and 10 μg/ml (study 2, Table 1.1.2).
In study 3 also LGA and HPA were tested and compared to DGA (see FIGS. 11c and 11d) with same doses as in study 2.
In studies 2-4 additional diet with 0.75 mM of palmitic acid (“fatty acid diet”) was added to Hi Medium. Hi Medium in itself contains ample amounts of glucose and fructose and other necessary ingredients for keeping viability of the cell culture at optimal level.
After 24 h (in study 1) and 20 h (in studies 2-4) incubation medium was renewed. Second renewal of the incubation medium occurred at 48 h in study 1 and at 40 h in other studies. ROS and LDH were measured after 1.5-2 hours after last change of the medium, i.e. in a situation with moderate metabolic stress.
The measurement of cellular reactive oxygen species (ROS) was carried out according to the instruction of Abcam (ab113851). At the end of treatment time point, culture medium was taken away for leaked LDH measurement and cells were washed with 100 μl/well PBS once. Thereafter 100 μl/well of DCDA mix was added and incubated for 45 min at 37° C. in the dark. Then cells were washed once with 1× buffer solution. The fluorescence signal was measured at an excitation wavelength of 485 nm and emission wavelength of 535 nm using the Hidex Chameleon V multiplate reader (Hidex Oy, Turku, Finland).
For the LDH and ROS assays, individual values of each measurement were stored and average value of fluorescence signals of various repeats of each treatment at studied time point were calculated and compared. […]

human hepatocytes = assay: Gene expression from hepatocytes lysates; assay type: cell-based; details: N = 5

O.O.O=C([O-])[C@H](O)CO.O=C([O-])[C@H](O)CO.[Ca+2] [DGAcs, D-glyceric acid, calcium salt dehydrate]
metabolism of alcohol [1]: expedited the metabolism of alcohol
ROS compared to 0 dose/control (in words) ([2]; primary human hepatocytes): decrease ROS levels significantly; also recorded: reduced ROS
CYP2B6 gene expression deviation from control (human hepatocytes; donor alpha, 1.4 (μM)): 38%
PGC-1a gene expression deviation from control (human hepatocytes; donor alpha, 1.4 (μM)): 5%
CYP2B6 gene expression deviation from control (human hepatocytes; donor alpha, 14 (μM)): 45%
PGC-1a gene expression deviation from control (human hepatocytes; donor alpha, 14 (μM)): 20%
CYP2B6 gene expression deviation from control (human hepatocytes; donor one, 1.4 (μM)): 8%
HO-1 gene expression deviation from control (human hepatocytes; donor one, 1.4 (μM)): 54%
PGC-1a gene expression deviation from control (human hepatocytes; donor one, 1.4 (μM)): 12%
CYP2B6 gene expression deviation from control (human hepatocytes; donor one, 14 (μM)): 3%
HO-1 gene expression deviation from control (human hepatocytes; donor one, 14 (μM)): 50%
PGC-1a gene expression deviation from control (human hepatocytes; donor one, 14 (μM)): 42%
CYP2B6 gene expression deviation from control (human hepatocytes; donor three, 1.4 (μM)): 29%
HO-1 gene expression deviation from control (human hepatocytes; donor three, 1.4 (μM)): 83%
PGC-1a gene expression deviation from control (human hepatocytes; donor three, 1.4 (μM)): 45%
CYP2B6 gene expression deviation from control (human hepatocytes; donor three, 14 (μM)): 49%
HO-1 gene expression deviation from control (human hepatocytes; donor three, 14 (μM)): 21%
PGC-1a gene expression deviation from control (human hepatocytes; donor three, 14 (μM)): 1%

O=C(O)[C@H](O)CO [DGA, D-glyceric acid]
ROS production compared to 0 dose/control ([2]; 1.5 h after new medium (moderate metabolic stress), 1.4 μM): Significant efficacy
ROS production compared to 0 dose/control ([2]; 1.5 h after new medium, 0.14 μM): no effect
ROS production compared to 0 dose/control ([2]; 1.5 h after new medium, 14 μM (2 μg/ml)): Biggest ROS scavenging effect
decline of ROS compared to control ([2]; donor one, Hi Medium+Palmitic acid, FIG. 11a): same decline
amount of ROSs decreased by ([2]; primary human hepatocytes, metabolic stress situation): 15-40%
ROS compared to 0 dose/control (in words) ([2]; primary human hepatocytes): decreases ROS
ROS scavenging in equimolar comparison against vitamin E, glutathione, vitamin C (and morin dehydrate) ([2]; study 4, donors alpha (FIG. 5) and (FIG. 6), 14 μM): superior or at least as good ROS scavenger; also recorded: superior antioxidant
